Values after ≈ are worked out from the molar mass of the structure shown. Values joined by “and” are separate entries in the source; they are usually repeats but may differ in a detail not shown here. Identical values can stand only once. “Also recorded” adds a separate entry of the source. Like-named read-outs stand apart in the source and are kept apart here.
Columns and labels:
[1] = cited from earlier work
[2] = Perivascular counting of IgG signal in brain sections after intracisternal infusion with or without mannitol (ex vivo fluorescence, ImageJ); parameters: species or system rat
Description: Female Sprague-Dawley rats (180-240 g) were anesthetized to a surgical plane of anesthesia using 1.3 g/kg intraperitoneal urethane (boostered to effect), tracheotomized, and placed in a stereotaxic frame (Stoelting). Atropine (0.1 mg/kg every two hours) was given subcutaneously to reduce fluid secretion in lungs. An incision was made on the back of the neck and the muscles were dissected from the occipital bone to expose the atlanto-occipital membrane, which was retracted to reveal the dura overlying the cisterna magna. A custom cannula (˜1 cm long) made of 33 GA polyether ether ketone (PEEK, Plastics One) was connected to a Hamilton syringe controlled by an infusion pump (Quintessential Stereotaxic Injector, Stoelting) via polyethylene-10 tubing (Solomon Scientific). The tubing was prefilled with infusate (i.e., antibody solution with or without mannitol), the dura punctured with a dental needle, and the PEEK cannula immediately inserted at a 60-degree angle from the horizontal, advanced 1 mm into the cisterna magna, and sealed with cyanoacrylate.
For ex vivo fluorescence, AlexaFluor488 goat-anti-rabbit IgG in PBS (as provided) or in PBS with mannitol (described below) was infused at 1.6 uL/min for 50 minutes (80 uL total), a rate that is expected to be physiological as it is approximately half the CSF production rate and has been shown not to increase intracranial pressure in rats (Yang et al. J Trans Med 2013). The abdominal aorta was then cannulated and thirty minutes after the infusion completed the animal was perfused with ˜50 mL ice cold 0.01 M PBS followed by ˜450 mL 4% paraformaldehyde in 0.1 M phosphate buffer following a blood draw. The brain was removed and placed in 4% paraformaldehyde or phosphate buffered saline overnight, then sliced into 100 micrometer sections using a vibratome. Sections were imaged on an Olympus MVX10 using an Orca-flash 2.8 CMOS camera (Hamamatsu), a Lumen Dynamics X-Cite 120Q illuminator and an appropriate filter set (Chroma, U-M49002XL).
(§1) AlexaFluor 488 goat-anti-rabbit IgG was prepared in 0.27 M or 0.75 M mannitol in 0.01M PBS using 0.5 mL Amicon Ultra 100 kDa molecular weight cutoff centrifugal filters for buffer exchange. IgG was added to the filter and washed/spun from 0.5 mL three times with 0.27 M or 0.75 M mannitol solution (osmolality 507 mOsm/kg and 988 mOsm/kg, respectively); each spin was 10 minutes at 14,000 g. Recovery spin was 2 minutes at 1,000 g. Concentration of IgG protein (absorbance at 280 nm) was measured using a NanoDrop 2000 (Thermo Fisher), and after concentration/buffer exchange in mannitol the protein concentration was diluted to the same concentration so animals received identical amounts of IgG whether administered in provided buffer or buffer with mannitol.
To quantify perivascular signal between treatments, images were opened in ImageJ/Fiji, thresholded to eliminate background, and the Analyze Particles command was used to count and outline ‘particles’, or perivascular signal, with no restrictions on size or circularity, as well as providing additional information such as circularity, area, and average size.

[3] = Confocal imaging of cerebral internal carotid artery: IgG access to smooth muscle basement membrane; format: in vivo, rat
Description: as §1

[4] = Fluorescence imaging of spinal cord slices after intrathecal infusion of IgG with or without mannitol; format: in vivo, rat
Description: FIG. 8 (A-C). […] The spinal cord has a simple structure—an outer spinal white matter that has few blood vessels and an inner spinal gray matter which has a dense network of blood vessels.
Female Sprague-Dawley rats (180-240 g) were anesthetized to a surgical plane of anesthesia using 1.3 g/kg intraperitoneal urethane (boostered to effect), tracheotomized, and placed in a stereotaxic frame (Stoelting). Atropine (0.1 mg/kg every two hours) was given subcutaneously to reduce fluid secretion in lungs. […]
For ex vivo fluorescence, AlexaFluor488 goat-anti-rabbit IgG in PBS (as provided) or in PBS with mannitol (described below) was infused at 1.6 uL/min for 50 minutes (80 uL total), a rate that is expected to be physiological as it is approximately half the CSF production rate and has been shown not to increase intracranial pressure in rats (Yang et al. J Trans Med 2013). […]
as §1, with “IgG was added to the filter and washed/spun from 0.5 mL three times with 0.27 M or 0.75 M mannitol solution (osmolality 507 mOsm/kg and 988 mOsm/kg, respectively); each spin was 10 minutes at 14,000 g. Recovery spin was 2 minutes at 1,000 g.” left out

[5] = Osmolality of mannitol infusion solutions; format: physicochemical
Description: as §1
We have measured the osmolality of both the 0.27 M mannitol (507-564 mOsm/kg) and 0.75 M mannitol (988-1126 mOsm/kg) solutions.

[6] = hypertonic solutions, animals (Speck et al. 1988); cited from earlier work

C[C@H](N)C(=O)O [L-Alanine]
solubility ([1]; at 25 C (Needham et al. 1971)): 1.67 M (≈ 149 mg/mL)

N[C@@H](Cc1ccccc1)C(=O)O [L-Phenylalanine]
solubility ([1]; at 25 C (Needham et al. 1971)): 0.208 M (≈ 34.4 mg/mL)

CC(C)[C@H](N)C(=O)O [L-Valine]
solubility ([1]; at 25 C (Needham et al. 1971)): 0.514 M (≈ 60.2 mg/mL)

OC[C@@H](O)[C@@H](O[C@H]1O[C@H](CO)[C@@H](O)[C@H](O)[C@H]1O)[C@H](O)[C@@H](O)CO [Maltitol]
solubility ([1]; at 37 C (body temperature)): 5.81 M (≈ 2000 mg/mL)

OC[C@@H](O)[C@@H](O)[C@H](O)[C@@H](O)CO [Sorbitol]
solubility in water ([1]; Merck Index): up to 83%

O=C[C@H](O)[C@@H](O)[C@H](O)CO [Xylose]
solubility ([1]; Merck Index, temperature not given): 8.32 M (≈ 1250 mg/mL) | solubility ([1]; at 25 C (Gabas et al. 1988)): 3.66 M (≈ 549 mg/mL)

OC[C@@H](O)[C@@H](O)[C@H](O)[C@H](O)CO [mannitol]
perivascular access of IgG (in words) ([2]; 0.27 M mannitol co-infusion vs IgG alone (controls)): improved access; also recorded: slight increase | brain distribution of IgG via the perivascular spaces (in words) ([2]; 0.75 M mannitol co-infused with labeled 150 kDa IgG): dramatically greater brain distribution | number of vessels accessed by IgG (in words) ([2]; 0.75 M mannitol co-infusion vs 0.27 M mannitol co-infusion or IgG alone): significantly increased | number of vessels with perivascular signal (in words) ([2]; IgG with 0.75 M mannitol co-infusion vs single domain antibody without mannitol): significantly higher number of vessels | dose dependence of perivascular access of IgG ([2]; mannitol between 0.27 M and 0.75 M): dose-dependent manner; also recorded: dose-dependent increase | IgG access to the basement membrane of the smooth muscle layer (in words) ([3]; 0.27 M mannitol co-infusion vs IgG without mannitol): modestly increased; also recorded: no visible improvement | IgG access to the basement membrane of the smooth muscle layer (in words) ([3]; 0.75 M mannitol co-infusion vs IgG without mannitol): strikingly increased; also recorded: markedly improved; also recorded: noticeably increased | number of IgG perivascular profiles in spinal gray (in words) ([4]; 0.27 M mannitol co-infusion vs IgG alone): slight increase | number of perivascular spaces with IgG signal in spinal cord (in words) ([4]; 0.75 M mannitol co-infusion): striking increase | osmolality ([5]; 0.27 M mannitol solution): 507 mOsm/kg and 507-564 mOsm/kg | osmolality ([5]; 0.75 M mannitol solution): 988 mOsm/kg and 988-1126 mOsm/kg | solubility ([1]; at 40 C (just above body temperature)): 2 M (≈ 364 mg/mL) | solubility ([1]; at 40 C (just above body temperature), listed as Mannitol): 1.90 to 1.94 M | tolerability of intrathecal infusion [6]: well tolerated

From patent US10123969B2, “Osmotic enhancement of drug/therapeutic delivery to the brain following infusion or injection into the cerebrospinal fluid” (Wisconsin Alumni Research Foundation, priority 2015, dated 2018)
